Data from patent US11807644B2 (PMV Pharmaceuticals, Inc., priority 2020, dated 2023).

Target: T1, recombinant His-tag Y220C p53 DBD protein (Homo sapiens, UniProt P04637, Y220C)
T1 construct: recombinant His-tag Y220C p53 DBD protein (amino acids #˜94-312)
Experiment: In vitro DNA binding activity assay (TR-FRET): binding of His-tag Y220C p53 DBD to biotin-labeled consensus DNA
Assay type: biochemical
Conditions: SC150 = concentration to increase DNA binding by […], His-tag Y220C p53 DBD, biotin-labeled consensus DNA
Protocol: DNA binding activity of the compounds was measured using a TR-FRET (Time-Resolved Fluorescence Resonance Energy Transfer) assay in which recombinant His-tag Y220C p53 DBD protein binds to biotin-labeled consensus DNA. Binding of recombinant His-tag Y220C p53 DBD protein and biotin-labeled consensus DNA was registered by the FRET (fluorescence resonance energy transfer) between allophycocyanin (APC) conjugated anti-His tag antibody and Europium-(Eu) conjugated Streptavidin.
The compounds of TABLES 1-9 (2 mM stock in dimethylsulfoxide) were diluted 3-fold in series in dimethylsulfoxide. 1.2 μL of a compound solution was added to each well of 384-well polypropylene black plates (NUNC). Thirty μL per well of 181 nM recombinant His-tag Y220C p53 DBD protein (amino acids #˜94-312; SEQ ID NO: 1) and 6.1 nM of APC conjugated anti-His tag antibody (Columbia Biosciences) in ice-cold Assay Buffer 1 (50 mM Tris-HCl, pH 7.4, 75 mM KCl, 0.75 mM DTT and 0.2 mg/ml, BSA) were added. As a background control. 30 μL of Assay Buffer 1 containing 6.1 nM of APC anti-His antibody (No Y220C protein) was also added into a second set of serially diluted compound plates. The samples were spun by centrifuge at 1,200 rpm (Eppendorf 5810R Plate centrifuge) for 1 minute and incubated at room temperature (20° C.) for 15 min. The samples were then further incubated at either 27° C. or 29° C. for 60 min. […] The samples were spun by centrifuge at 1,200 rpm for 1 min and incubated at room temperature (20° C.) for 20 min. Assay signals were monitored by reading excitation at 340 nm, and emission fluorescence at 615 nm and 665 nm on an Envision® reader. Normalized TR-FRET (time-resolved fluorescence resonance energy transfer) assay signal (Rn) was calculated by the formula: Rn=[(A−Ba−C×(D−Bd))/(D−Bd)]×(D−Bd) Wherein: • A is the fluorescence intensity of the sample at 665 nm; • D is the fluorescence intensity of the sample at 615 nm; • Ba and Bd are plate backgrounds at 665 nm and 615 nm, respectively; and • Dc is the fluorescence intensity of 0.67 nM Eu-SA in the assay buffer at 615 nm.
The cross-talk factor (C) was determined by the following formula: C=(Ac−Ba)/(Dc−Bd) wherein Ac is the fluorescence intensity of 0.67 nM Europium (Eu) conjugated Streptavidin in the assay buffer at 665 nm.

Row | Y220C SC150 (μM) | SMILES
1 | * (* = 0 μM ≤ SC150 < 0.1 μM) | COC(=O)[C@@H]1C[C@H]1C(=O)NCc1nnc(-c2cc3c(NC4CCN(C)CC4)cccc3n2CC(F)(F)F)s1 (racemic) [Compound 75B, (+/−)-methyl (1R,2R)-2-{[(5-{4-[(1-methylpiperidin-4-yl)amino]-1-(2,2,2-trifluoroethyl)-1H-indol-2-yl}-1,3,4-thiadiazol-2-yl)methyl]carbamoyl}cyclopropane-1-carboxylate]
2 | * (* = 0 μM ≤ SC150 < 0.1 μM) | CN1CCC(Nc2cccc3c2cc(-c2nnc(CNC(=O)[C@@H]4C[C@H]4C(=O)O)s2)n3CC(F)(F)F)CC1 (racemic) [Compound 76B, (+/−)-(1R,2R)-2-{[(5-{4-[(1-methylpiperidin-4-yl)amino]-1-(2,2,2-trifluoroethyl)-1H-indol-2-yl}-1,3,4-thiadiazol-2-yl)methyl]carbamoyl}cyclopropane-1-carboxylic acid]
3 | ** (** = 0.1 μM ≤ SC150 < 0.5 μM) | CN1CCC(Nc2cccc3c2cc(-c2nnc(CNC(=O)[C@@H]4C[C@@H]4C(=O)O)s2)n3CC(F)(F)F)CC1 (racemic) [Compound 81B, (+/−)-(1R,2S)-2-{[(5-{4-[(1-methylpiperidin-4-yl)amino]-1-(2,2,2-trifluoroethyl)-1H-indol-2-yl}-1,3,4-thiadiazol-2-yl)methyl]carbamoyl}cyclopropane-1-carboxylic acid]
4 | **** (**** = 1 μM ≤ SC150 < 10 μM) | CN1CC[C@@H](Nc2cccc3c2cc(-c2nc(CNC(=O)C4CC4)cs2)n3CC(F)(F)F)[C@@H](F)C1 (racemic) [Compound 89B, N-{[2-(4-{[(3S,4R)-3-fluoro-1-methylpiperidin-4-yl]amino}-1-(2,2,2-trifluoroethyl)-1H-indol-2-yl)-1,3-thiazol-4-yl]methyl}cyclopropanecarboxamide]
5 | **** (**** = 1 μM ≤ SC150 < 10 μM) | CN1CC[C@@H](Nc2cccc3c2cc(-c2nc(CNC(=O)c4ccccc4)cs2)n3CC(F)(F)F)[C@@H](F)C1 (racemic) [Compound 90B, N-{[2-(4-{[(3S,4R)-3-fluoro-1-methylpiperidin-4-yl]amino}-1-(2,2,2-trifluoroethyl)-1H-indol-2-yl)-1,3-thiazol-4-yl]methyl}benzamide]
6 | * (* = 0 μM ≤ SC150 < 0.1 μM) | CN1CC[C@@H](Nc2cccc3c2cc(-c2ncc(CNC(=O)c4ccccc4)s2)n3CC(F)(F)F)[C@@H](F)C1 (racemic) [Compound 91B, (+/−)-N-{[2-(4-{[(3R,4S)-3-fluoro-1-methylpiperidin-4-yl]amino}-1-(2,2,2-trifluoroethyl)-1H-indol-2-yl)-1,3-thiazol-5-yl]methyl}benzamide]
7 | *** (*** = 0.5 μM ≤ SC150 < 1 μM) | CN1CC[C@@H](Nc2cccc3c2cc(-c2nccs2)n3CC(F)(F)F)[C@@H](F)C1 (racemic) [Compound 93B, (+/−)-N-[(3R,4S)-3-fluoro-1-methylpiperidin-4-yl]-2-(1,3-thiazol-2-yl)-1-(2,2,2-trifluoroethyl)-1H-indol-4-amine]
8 | * (* = 0 μM ≤ SC150 < 0.1 μM) | CN1CC[C@@H](Nc2cccc3c2cc(-c2ncc(CNC(=O)C4CC4)s2)n3CC(F)(F)F)[C@@H](F)C1 (racemic) [Compound 95B, (+/−)-N-{[2-(4-{[(3R,4S)-3-fluoro-1-methylpiperidin-4-yl]amino}-1-(2,2,2-trifluoroethyl)-1H-indol-2-yl)-1,3-thiazol-5-yl]methyl}cyclopropanecarboxamide]
9 | **** (**** = 1 μM ≤ SC150 < 10 μM) | CN1CC[C@@H](Nc2cccc3c2cc(-c2ncc(CN)s2)n3CC(F)(F)F)[C@@H](F)C1 (racemic) [Compound 96B, (+/−)-2-[5-(aminomethyl)-1,3-thiazol-2-yl]-N-[(3R,4S)-3-fluoro-1-methylpiperidin-4-yl]-1-(2,2,2-trifluoroethyl)-1H-indol-4-amine]
10 | * (* = 0 μM ≤ SC150 < 0.1 μM) | CN1CC[C@@H](Nc2cccc3c2cc(-c2ncc(CNc4ccccc4)s2)n3CC(F)(F)F)[C@@H](F)C1 (racemic) [Compound 98B, (+/−)-N-[(3R,4S)-3-fluoro-1-methylpiperidin-4-yl]-2-{5-[(phenylamino)methyl]-1,3-thiazol-2-yl}-1-(2,2,2-trifluoroethyl)-1H-indol-4-amine]
11 | * (* = 0 μM ≤ SC150 < 0.1 μM) | COc1cc(S(C)(=O)=O)ccc1NCc1ccc(-c2cc3c(N[C@H]4CCN(C)C[C@H]4F)cccc3n2CC(F)(F)F)s1 (racemic) [Compound 101B, (+/−)-N-[(3R,4S)-3-fluoro-1-methylpiperidin-4-yl]-2-(5-{[(4-methanesulfonyl-2-methoxyphenyl)amino]methyl}thiophen-2-yl)-1-(2,2,2-trifluoroethyl)-1H-indol-4-amine]
12 | ** (** = 0.1 μM ≤ SC150 < 0.5 μM) | CN1CC[C@H](Nc2cccc3c2cc(-c2ccc(CNC(=O)c4ccccc4)s2)n3CC(F)(F)F)[C@H](F)C1 (racemic) [Compound 102B, (+/−)-N-{[5-(4-{[(3R,4S)-3-fluoro-1-methylpiperidin-4-yl]amino}-1-(2,2,2-trifluoroethyl)-1H-indol-2-yl)thiophen-2-yl]methyl}benzamide]
13 | * (* = 0 μM ≤ SC150 < 0.1 μM) | CN1CC[C@@H](Nc2cccc3c2cc(-c2ccc(CNC(=O)C4CC4)s2)n3CC(F)(F)F)[C@@H](F)C1 (racemic) [Compound 103B, (+/−)-N-{[5-(4-{[(3R,4S)-3-fluoro-1-methylpiperidin-4-yl]amino}-1-(2,2,2-trifluoroethyl)-1H-indol-2-yl)thiophen-2-yl]methyl}cyclopropanecarboxamide]
14 | ** (** = 0.1 μM ≤ SC150 < 0.5 μM) | COc1cc(S(C)(=O)=O)ccc1NCc1nnc(-c2cc3c(N[C@H]4CCN(C)C[C@H]4F)cccc3n2CC(F)(F)F)o1 (racemic) [Compound 114B, (+/−)-N-[(3R,4S)-3-fluoro-1-methylpiperidin-4-yl]-2-(5-{[(4-methanesulfonyl-2-methoxyphenyl)amino]methyl}-1,3,4-oxadiazol-2-yl)-1-(2,2,2-trifluoroethyl)-1H-indol-4-amine]
15 | ** (** = 0.1 μM ≤ SC150 < 0.5 μM) | COc1ccccc1C(=O)NCc1nnc(-c2cc3c(N[C@H]4CCN(C)C[C@H]4F)cccc3n2CC(F)(F)F)o1 (racemic) [Compound 115B, (+/−)-N-{[5-(4-{[(3R,4S)-3-fluoro-1-methylpiperidin-4-yl]amino}-1-(2,2,2-trifluoroethyl)-1H-indol-2-yl)-1,3,4-oxadiazol-2-yl]methyl}-2-methoxybenzamide]
16 | *** (*** = 0.5 μM ≤ SC150 < 1 μM) | CN1CC[C@H](Nc2cccc3c2cc(-c2nnc(CN)o2)n3CC(F)(F)F)[C@H](F)C1 (racemic) [Compound 116B, (+/−)-2-[5-(aminomethyl)-1,3,4-oxadiazol-2-yl]-N-[(3R,4S)-3-fluoro-1-methylpiperidin-4-yl]-1-(2,2,2-trifluoroethyl)-1H-indol-4-amine]
17 | ** (** = 0.1 μM ≤ SC150 < 0.5 μM) | COc1ccc(C(=O)NCc2nnc(-c3cc4c(N[C@H]5CCN(C)C[C@H]5F)cccc4n3CC(F)(F)F)o2)cc1 (racemic) [Compound 117B, (+/−)-N-{[5-(4-{[(3R,4S)-3-fluoro-1-methylpiperidin-4-yl]amino}-1-(2,2,2-trifluoroethyl)-1H-indol-2-yl)-1,3,4-oxadiazol-2-yl]methyl}-4-methoxybenzamide]
18 | ** (** = 0.1 μM ≤ SC150 < 0.5 μM) | CN1CC[C@H](Nc2cccc3c2cc(-c2nnc(CNC(=O)c4ccccc4)o2)n3CC(F)(F)F)[C@H](F)C1 (racemic) [Compound 118B, (+/−)-N-{[5-(4-{[(3R,4S)-3-fluoro-1-methylpiperidin-4-yl]amino}-1-(2,2,2-trifluoroethyl)-1H-indol-2-yl)-1,3,4-oxadiazol-2-yl]methyl}benzamide]
19 | ** (** = 0.1 μM ≤ SC150 < 0.5 μM) | COc1cccc(C(=O)NCc2nnc(-c3cc4c(N[C@H]5CCN(C)C[C@H]5F)cccc4n3CC(F)(F)F)o2)c1 (racemic) [Compound 119B, (+/−)-N-{[5-(4-{[(3R,4S)-3-fluoro-1-methylpiperidin-4-yl]amino}-1-(2,2,2-trifluoroethyl)-1H-indol-2-yl)-1,3,4-oxadiazol-2-yl]methyl}-3-methoxybenzamide]
